Results reported in the supplement of paper PMC4862054.

Legend:
Conditions in all cases: 72 h
BT-474 [1] = tested on: BT-474
In short: (§1)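 Breast cancer cell lines (20 µl suspension) were seeded into 384-well plates holding compound at 5 concentrations in 10-fold steps over a compound-specific 10,000-fold range, then incubated 72 h. Cell death was read first by CellTox Green fluorescence (485/520 nm), then viability by CellTiter-Glo luminescence after 10 min at room temperature. Each plate was normalised to 0.1 % DMSO and a positive kill control. EC50 was fitted from the dose-response curves and censored at the top concentration.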

BT-549 [2] = tested on: BT-549
In short: as §1

CAL-120 [3] = tested on: CAL-120
In short: as §1

CAL-148 [4] = tested on: CAL-148
In short: as §1

CAL-51 [5] = tested on: CAL-51
In short: as §1

CAL-85-1 [6] = tested on: CAL-85-1
In short: as §1

DU-4475 [7] = tested on: DU-4475
In short: as §1

HCC1143 [8] = tested on: HCC1143
In short: as §1

HCC1599 [9] = tested on: HCC1599
In short: as §1

HDQ-P1 [10] = tested on: HDQ-P1
In short: as §1

Hs578T [11] = tested on: Hs578T
In short: as §1

MCF-10A [12] = tested on: MCF-10A
In short: as §1

MDA-MB-231 [13] = tested on: MDA-MB-231
In short: as §1

MDA-MB-436 [14] = tested on: MDA-MB-436
In short: as §1

MDA-MB-468 [15] = tested on: MDA-MB-468
In short: as §1

SK-BR-3 [16] = tested on: SK-BR-3
In short: as §1

CAL-148 [17] = tested on: CAL-148; remark: listed apart in the source
In short: (§2)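 Viability of breast cancer cell lines was measured with CellTiter-Blue after 72 h of incubation on compound-loaded 384-well plates. Cells were seeded in 20 µl onto compound dissolved in 5 µl medium, and 2.5 µl reagent was added for 2 h at 37 °C before reading at 560/590 nm. EC50 was fitted from percent-inhibition dose-response data censored at the highest concentration, normalised per plate to vehicle and a positive kill control, with zero drug sensitivity score rows dropped.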

CAL-51 [18] = tested on: CAL-51; remark: listed apart in the source
In short: as §2

CAL-85-1 [19] = tested on: CAL-85-1; remark: listed apart in the source
In short: as §2

DU-4475 [20] = tested on: DU-4475; remark: listed apart in the source
In short: as §2

MDA-MB-453 [21] = tested on: MDA-MB-453
In short: as §2

BT-549 [22] = tested on: BT-549; remark: listed apart in the source
In short: as §2

CAL-120 [23] = tested on: CAL-120; remark: listed apart in the source
In short: as §2

HCC1143 [24] = tested on: HCC1143; remark: listed apart in the source
In short: as §2

HCC1599 [25] = tested on: HCC1599; remark: listed apart in the source
In short: as §2

HCC1937 [26] = tested on: HCC1937
In short: as §2

Hs578T [27] = tested on: Hs578T; remark: listed apart in the source
In short: as §2

MDA-MB-231 [28] = tested on: MDA-MB-231; remark: listed apart in the source
In short: as §2

MDA-MB-436 [29] = tested on: MDA-MB-436; remark: listed apart in the source
In short: as §2

MDA-MB-468 [30] = tested on: MDA-MB-468; remark: listed apart in the source
In short: as §2

SK-BR-3 [31] = tested on: SK-BR-3; remark: listed apart in the source
In short: as §2

CAL-148 [32] = tested on: CAL-148; remark: listed apart in the source
Procedure: (§3)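 Drug sensitivity and resistance testing (DSRT) of breast cancer cell lines in 384-well plates, 5 concentrations in 10-fold dilutions over a compound-specific 10,000-fold range. After 72 h, cytotoxicity was read by CellTox Green fluorescence and viability by CellTiter-Glo luminescence (multiplexed), normalised to DMSO and benzethonium chloride controls. EC50 is the inflection point of the fitted dose-response curve (bottom asymptote free, so it can be relative for partial curves) and is censored at the highest tested concentration. Rows with DSS 0 (no meaningful response) were excluded.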

CAL-85-1 [33] = tested on: CAL-85-1; remark: listed apart in the source
Procedure: as §3

MDA-MB-468 [34] = tested on: MDA-MB-468; remark: listed apart in the source
Procedure: as §3

HCC1937 [35] = tested on: HCC1937; remark: listed apart in the source
In short: as §1

MDA-MB-453 [36] = tested on: MDA-MB-453; remark: listed apart in the source
In short: as §1

MFM-223 [37] = tested on: MFM-223
In short: as §1

BT-474 [38] = tested on: BT-474; remark: listed apart in the source
Procedure: as §3

HCC1599 [39] = tested on: HCC1599; remark: listed apart in the source
Procedure: as §3

HDQ-P1 [40] = tested on: HDQ-P1; remark: listed apart in the source
Procedure: as §3

Hs578T [41] = tested on: Hs578T; remark: listed apart in the source
Procedure: as §3

MCF-10A [42] = tested on: MCF-10A; remark: listed apart in the source
Procedure: as §3

MDA-MB-231 [43] = tested on: MDA-MB-231; remark: listed apart in the source
Procedure: as §3

MFM-223 [44] = tested on: MFM-223; remark: listed apart in the source
Procedure: as §3

HDQ-P1 [45] = tested on: HDQ-P1; remark: listed apart in the source
In short: as §2

MFM-223 [46] = tested on: MFM-223; remark: listed apart in the source
In short: as §2

HCC1143 [47] = tested on: HCC1143; remark: listed apart in the source
Procedure: as §3

BT-549 [48] = tested on: BT-549; remark: listed apart in the source
Procedure: as §3

Row | Structure (SMILES) | EC50, CellTiter-Glo (BT-474 [1]) [nM] | EC50, CellTiter-Glo (BT-549 [2]) [nM] | EC50, CellTiter-Glo (CAL-120 [3]) [nM] | EC50, CellTiter-Glo (CAL-148 [4]) [nM] | EC50, CellTiter-Glo (CAL-51 [5]) [nM] | EC50, CellTiter-Glo (CAL-85-1 [6]) [nM] | EC50, CellTiter-Glo (DU-4475 [7]) [nM] | EC50, CellTiter-Glo (HCC1143 [8]) [nM] | EC50, CellTiter-Glo (HDQ-P1 [10]) [nM] | EC50, CellTiter-Glo (Hs578T [11]) [nM] | EC50, CellTiter-Glo (MCF-10A [12]) [nM] | EC50, CellTiter-Glo (MDA-MB-231 [13]) [nM] | EC50, CellTiter-Glo (MDA-MB-436 [14]) [nM] | EC50, CellTiter-Glo (MDA-MB-468 [15]) [nM] | EC50, CellTiter-Glo (SK-BR-3 [16]) [nM] | EC50, CellTox Green (CAL-148 [32]) [nM] | EC50, CellTox Green (CAL-85-1 [33]) [nM] | EC50, CellTox Green (MDA-MB-468 [34]) [nM] | EC50, CellTiter-Glo (MFM-223 [37]) [nM] | EC50, CellTox Green (MDA-MB-231 [43]) [nM] | also measured
1 | Nc1nc(Cl)nc2c1ncn2[C@@H]1O[C@H](CO)[C@@H](O)[C@@H]1F [Clofarabine] | 196 | 211 | 305 | 601 | 261 | 398 | 872 | 320 | 482 | 3150 | 675 | 524 | 219 | 627 | 201 | 169 | 1420 | > 10000 | – | – | EC50, CellTiter-Glo (HCC1599 [9]): 1740 nM; EC50, CellTiter-Blue viability (CAL-148 [17]): 563 nM; EC50, CellTiter-Blue viability (CAL-51 [18]): 870 nM; EC50, CellTiter-Blue viability (CAL-85-1 [19]): 152 nM; EC50, CellTiter-Blue viability (DU-4475 [20]): 472 nM; EC50, CellTiter-Blue viability (MDA-MB-453 [21]): 484 nM; EC50, CellTiter-Blue viability (BT-549 [22]): 340 nM; EC50, CellTiter-Blue viability (CAL-120 [23]): 116 nM; EC50, CellTiter-Blue viability (HCC1143 [24]): 118 nM; EC50, CellTiter-Blue viability (HCC1599 [25]): 2220 nM; EC50, CellTiter-Blue viability (HCC1937 [26]): 180 nM; EC50, CellTiter-Blue viability (Hs578T [27]): 149 nM; EC50, CellTiter-Blue viability (MDA-MB-231 [28]): 20.5 nM; EC50, CellTiter-Blue viability (MDA-MB-436 [29]): 104 nM; EC50, CellTiter-Blue viability (MDA-MB-468 [30]): 453 nM; EC50, CellTiter-Blue viability (SK-BR-3 [31]): 90.6 nM
2 | CCc1cnn2c(NCc3ccc[n+]([O-])c3)cc(N3CCCC[C@H]3CCO)nc12 [Dinaciclib] | 12.9 | 13.9 | 17.9 | 26.9 | 12.8 | 5.42 | 20.6 | 12 | 12.3 | 16 | 45.8 | 5.9 | 9 | 23.7 | 6.99 | 28.3 | 22 | 17.1 | 21.2 | 8.07 | EC50, CellTiter-Glo (HCC1599 [9]): 14.8 nM; EC50, CellTiter-Glo (HCC1937 [35]): 21.9 nM; EC50, CellTiter-Glo (MDA-MB-453 [36]): 26.1 nM; EC50, CellTox Green (BT-474 [38]): 13.2 nM; EC50, CellTox Green (HCC1599 [39]): 14.1 nM; EC50, CellTox Green (HDQ-P1 [40]): 8.27 nM; EC50, CellTox Green (Hs578T [41]): 26.4 nM; EC50, CellTox Green (MCF-10A [42]): 77.4 nM; EC50, CellTox Green (MFM-223 [44]): 22 nM
3 | COc1cc2c(Oc3ccc(NC(=O)C4(C(=O)Nc5ccc(F)cc5)CC4)cc3F)ccnc2cc1OCCCN1CCOCC1 [Foretinib] | 145 | – | 179 | 610 | 490 | – | – | 317 | – | – | 854 | 600 | > 1000 | 772 | – | 712 | – | 374 | 111 | 129 | EC50, CellTiter-Blue viability (CAL-148 [17]): 675 nM; EC50, CellTiter-Blue viability (CAL-51 [18]): 473 nM; EC50, CellTiter-Blue viability (DU-4475 [20]): 748 nM; EC50, CellTiter-Blue viability (HDQ-P1 [45]): 157 nM; EC50, CellTiter-Blue viability (CAL-120 [23]): 787 nM; EC50, CellTiter-Blue viability (Hs578T [27]): 756 nM; EC50, CellTiter-Blue viability (MDA-MB-436 [29]): 13.8 nM; EC50, CellTiter-Blue viability (MFM-223 [46]): 62.5 nM; EC50, CellTiter-Blue viability (SK-BR-3 [31]): > 1000 nM; EC50, CellTox Green (HCC1143 [47]): 693 nM
4 | COc1cc(Nc2ncc(F)c(Nc3ccc4c(n3)N(COP(=O)(O)O)C(=O)C(C)(C)O4)n2)cc(OC)c1OC [Fostamatinib] | 1160 | 599 | 405 | – | – | 1560 | – | 530 | 1660 | 938 | 451 | 452 | – | – | > 2500 | – | 725 | – | 222 | 267 | EC50, CellTiter-Glo (HCC1937 [35]): > 2500 nM; EC50, CellTox Green (BT-549 [48]): 1.6 nM; EC50, CellTox Green (Hs578T [41]): 1080 nM
